Test results taken from ChEMBL document CHEMBL1146740, “New analogue of arenastatin A, a potent cytotoxic spongean depsipeptide, with anti-tumor activity” (Bioorg Med Chem Lett, 2004).
Converted amounts (≈) assume the structure as drawn.

Experiments:
Mus musculus [1] = assay: In vivo antitumor activity (reduction of tumor volume) was determined against lewis lung carcinoma, subcutaneously in mice at a dose of 2.5 mg/kg; format: functional; details: route intravenous
Mus musculus [2] = assay: In vivo antitumor activity (reduction of tumor volume) was determined against lewis lung carcinoma, subcutaneously in mice at a dose of 5 mg/kg; format: functional; details: route intravenous
Mus musculus [3] = assay: In vivo antitumor activity (reduction of tumor volume) was determined against lewis lung carcinoma, subcutaneously in mice at a dose of 10 mg/kg; format: functional; details: route intravenous
[4] = In vivo antitumor activity (reduction of tumor volume) was determined over treated/control mice at a dose of 10 mg/kg; format: functional
[5] = In vivo antitumor activity (reduction of tumor volume) was determined over treated/control mice at a dose of 2.5 mg/kg; format: functional
[6] = In vivo antitumor activity (reduction of tumor volume) was determined over treated/control mice at a dose of 5 mg/kg; format: functional
KB 3-1 = assay: Inhibitory activity was evaluated for potent cytotoxic effect on KB-3-1 cells; format: functional, cell-based; details: Homo sapiens
Mus musculus [7] = assay: In vivo antitumor activity (reduction of tumor volume) was determined against lewis lung carcinoma, subcutaneously in mice at a dose of 3.3 mg/kg; format: functional; details: route intravenous
Mus musculus [8] = assay: In vivo antitumor activity (reduction of tumor volume) was determined against lewis lung carcinoma, subcutaneously in mice at a dose of 1.65 mg/kg; format: functional; details: route intravenous
[9] = In vivo antitumor activity (reduction of tumor volume) was determined over treated/control mice at a dose of 1.65 mg/kg; format: functional
[10] = In vivo antitumor activity (reduction of tumor volume) was determined over treated/control mice at a dose of 3.3 mg/kg; format: functional

COc1ccc(C[C@H]2NC(=O)/C=C/C[C@@H]([C@H](C)[C@H]3O[C@@H]3c3ccccc3)OC(=O)[C@H](C(C)(C)C)OC(=O)CCNC2=O)cc1
Tumor volume (Mus musculus [1]): 6.6 cm*3 | Tumor volume (Mus musculus [2]): 7.1 cm*3 | Tumor volume (Mus musculus [3]): 4.9 cm*3 | T/C [4]: 0.71 | T/C [5]: 0.96 | T/C [6]: 1.03 | IC50 (KB 3-1): 0.01 µg/mL (≈ 0.0165 µM)

COc1ccc(C[C@H]2NC(=O)/C=C/C[C@@H]([C@H](C)[C@H]3O[C@@H]3c3ccccc3)OC(=O)[C@H](C(C)C)OC(=O)CCNC2=O)cc1
IC50 (KB 3-1): 0.03 µg/mL (≈ 0.0506 µM)

CO[C@@]12[C@H](COC(N)=O)C3=C(C(=O)C(C)=C(N)C3=O)N1C[C@@H]1N[C@@H]12 [MITOMYCIN]
Tumor volume (Mus musculus [7]): 3.3 cm*3 | Tumor volume (Mus musculus [8]): 4.2 cm*3 | T/C [9]: 0.62 | T/C [10]: 0.48
